Measurements from US12522612B2, “PDE4 inhibitors, pharmaceutical compositions, and therapeutic applications” (BioTheryX, Inc., priority 2019, dated 2026).

Legend:
[1] = target: T1, PDE4B (Homo sapiens, UniProt Q07343); test: Protein degradation assay in A549 cells, western blot, PDE4B; format: cell-based; details: 24 h treatment, read-out: PDE4B degradation relative to DMSO
T1 construct: Whole cell extracts were prepared using an immunoprecipitation (IP) lysis buffer; endogenous in cells; host or cells: A549
Procedure: A549 cells were grown in RPMI 1640 media supplemented with 10% fetal bovine serum, streptomycin, and penicillin. The cells were plated in 6-well plates in the growth media. The next day, fresh growth media were replaced on the cells. The cells were then treated with a compound for 24 h at predetermined concentrations. Whole cell extracts were prepared using an immunoprecipitation (IP) lysis buffer. Briefly, the cells were washed once in PBS, and the cell pellets were resuspended in the IP lysis buffer and incubated for 15 min on ice. Cells debris was removed by centrifugation and the cleared whole cell lysates were transferred to new tubes for further analysis.
For a western blot analysis, the whole cell protein extracts were separated on 4-12% SDS-polyacrylamide gels, transferred to nitrocellulose, and probed with primary antibodies. Membranes were subsequently washed and probed with IRDYE® secondary antibodies. The signals were detected using an ODYSSEY® Imaging System. The antibodies used in the assay included anti-PDE4B antibody; anti-PDE4D antibodies (top, bottom, and short isoform); β-actin mouse monoclonal antibody; IRDYE® 680RD goat anti-rabbit antibody; and IRDYE® 800CW goat anti-mouse antibody. Compounds B2 to B4, B18, B49 to B52, B76, B77, B79, B81 to B83, B88, B89, and B91 were determined to be able to degradate PDE4B as high as about 50% relative to DMSO.

[2] = system: TNF-α; test: Cell-based TNF-α inhibition assay in LPS-induced PBMCs (Meso Scale); details: PBMC, PBMCs pretreated 1 h, LPS 100 ng/mL 18-24 h, relative to stimulated DMSO control; for inhibition at 1 µM: compound concentration 1 μM; for inhibition at 0.1 µM: compound concentration 0.1 μM
Procedure: Frozen primary blood mononuclear cells (PBMCs) were quick thawed, washed once with RPMI 1640 media supplemented with 10% fetal bovine serum, 1% penicillin, and 1% streptomycin, and plated in a 96 well plate at 200,000 cells per well. The cells were pretreated with DMSO only as a control or a compound for 1 h, and then induced with LPS (lipopolysaccharide) (100 ng/mL) for 18-24 h. The supernatant was analyzed for TNF-α using the Meso Scale assay. Compound activity was determined as a percentage of the stimulated DMSO control. The results are summarized in Table 1, where A represents a percent inhibition value ≥60%; B represents a percent inhibition value <60% and ≥40%; C represents a percent inhibition value <40% and >20%; and D represents a single percent inhibition value <20%.

T1 sequence (Q07343 whole entry): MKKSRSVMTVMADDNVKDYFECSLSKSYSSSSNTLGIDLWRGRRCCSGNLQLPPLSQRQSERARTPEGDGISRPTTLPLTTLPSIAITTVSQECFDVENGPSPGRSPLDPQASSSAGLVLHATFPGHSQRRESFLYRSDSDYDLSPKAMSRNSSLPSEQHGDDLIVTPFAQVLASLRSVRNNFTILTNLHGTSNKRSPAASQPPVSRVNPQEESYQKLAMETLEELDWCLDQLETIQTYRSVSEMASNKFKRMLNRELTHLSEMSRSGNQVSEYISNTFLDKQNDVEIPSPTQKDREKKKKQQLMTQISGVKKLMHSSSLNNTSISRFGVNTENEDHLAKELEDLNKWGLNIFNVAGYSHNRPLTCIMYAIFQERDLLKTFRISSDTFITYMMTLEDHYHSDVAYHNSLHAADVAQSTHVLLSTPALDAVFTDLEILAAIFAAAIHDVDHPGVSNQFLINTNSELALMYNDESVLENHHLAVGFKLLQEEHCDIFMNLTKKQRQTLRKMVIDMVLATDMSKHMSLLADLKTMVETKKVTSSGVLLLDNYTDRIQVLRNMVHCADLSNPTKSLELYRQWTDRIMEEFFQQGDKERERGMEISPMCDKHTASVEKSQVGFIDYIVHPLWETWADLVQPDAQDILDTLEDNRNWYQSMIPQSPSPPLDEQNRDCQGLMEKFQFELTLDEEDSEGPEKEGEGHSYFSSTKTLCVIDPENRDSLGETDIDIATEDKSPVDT

Dmax [1] [%] | Structure (SMILES) | inhibition at 1 µM [2] [%] | inhibition at 0.1 µM [2] [%]
≤ 50 | CCOc1cc([C@@H](CS(C)(=O)=O)N2C(=O)c3cc(CCCCCCCN4CCC(c5cc(F)cc6c5CN(C5CCC(=O)NC5=O)C6=O)CC4)cc(NC(C)=O)c3C2=O)ccc1OC (stereo partly drawn) [Compound B2, N-(6-(7-(4-(2-(2,6-dioxopiperidin-3-yl)-6-fluoro-1-oxoisoindolin-4-yl)piperidin-1-yl)heptyl)-2-((S)-1-(3-ethoxy-4-methoxyphenyl)-2-(methylsulfonyl)ethyl)-1,3-dioxoisoindolin-4-yl)acetamide] | ≥ 60 | 
≤ 50 | O=C1CCC(N2Cc3c(cc(F)cc3C3CCN(CCCCCCCN(C(=O)c4ccc(OC(F)F)c(OCC5CC5)c4)c4c(Cl)cncc4Cl)CC3)C2=O)C(=O)N1 (centres unmarked) [Compound B3, 3-(Cyclopropylmethoxy)-N-(3,5-dichloropyridin-4-yl)-4-(difluoromethoxy)-N-(7-(4-(2-(2,6-dioxopiperidin-3-yl)-6-fluoro-1-oxoisoindolin-4-yl)piperidin-1-yl)heptyl)benzamide] | < 20 | < 20
≤ 50 | O=C1CCC(N2Cc3c(cc(F)cc3C3CCN(CCCCCCCOc4cc(C(=O)Nc5c(Cl)cncc5Cl)ccc4OC(F)F)CC3)C2=O)C(=O)N1 (centres unmarked) [Compound B4, N-(3,5-dichloropyridin-4-yl)-4-(difluoromethoxy)-3-((7-(4-(2-(2,6-dioxopiperidin-3-yl)-6-fluoro-1-oxoisoindolin-4-yl)piperidin-1-yl)heptyl)oxy)benzamide] | ≥ 60 | ≥ 60
≤ 50 | O=C1CCC(N2Cc3c(C#CC4CCN(C(=O)CCCCOc5cc(C(=O)Nc6c(Cl)cncc6Cl)ccc5OC(F)F)CC4)cccc3C2=O)C(=O)N1 (centres unmarked) [Compound B18, N-(3,5-Dichloropyridin-4-yl)-4-(difluoromethoxy)-3-((5-(4-((2-(2,6-dioxopiperidin-3-yl)-1-oxoisoindolin-4-yl)ethynyl)piperidin-1-yl)-5-oxopentyl)oxy)benzamide] | ≥ 60 | ≥ 60
≤ 50 | COc1ccc(N2Cc3ccccc3C2=O)cc1OCCCCCCCN1CCC(c2cc(F)cc3c2CN(C2CCC(=O)NC2=O)C3=O)CC1 (centres unmarked) [Compound B49, 3-(6-Fluoro-4-(1-(7-(2-methoxy-5-(1-oxoisoindolin-2-yl)phenoxy)heptyl)piperidin-4-yl)-1-oxoisoindolin-2-yl)piperidine-2,6-dione] | < 20 | 
≤ 50 | O=C1CCC(N2Cc3c(cc(F)cc3C3CCN(CCCCCCCOc4ccc(N5Cc6ccccc6C5=O)cc4OC4CCCC4)CC3)C2=O)C(=O)N1 (centres unmarked) [Compound B50, 3-(4-(1-(7-(2-(Cyclopentyloxy)-4-(1-oxoisoindolin-2-yl)phenoxy)heptyl)piperidin-4-yl)-6-fluoro-1-oxoisoindolin-2-yl)piperidine-2,6-dione] | < 20 | 
≤ 50 | COc1ccc(N2C(=O)c3ccccc3C2=O)cc1OCCCCCCCN1CCC(c2cc(F)cc3c2CN(C2CCC(=O)NC2=O)C3=O)CC1 (centres unmarked) [Compound B51, 2-(3-((7-(4-(2-(2,6-Dioxopiperidin-3-yl)-6-fluoro-1-oxoisoindolin-4-yl)piperidin-1-yl)heptyl)oxy)-4-methoxyphenyl)isoindoline-1,3-dione] | 20 to 40 | 
≤ 50 | COc1ccc(N2C(=O)c3ccc(N)cc3C2=O)cc1OCCCCCCCN1CCC(c2cc(F)cc3c2CN(C2CCC(=O)NC2=O)C3=O)CC1 (centres unmarked) [Compound B52, 5-Amino-2-(3-((7-(4-(2-(2,6-dioxopiperidin-3-yl)-6-fluoro-1-oxoisoindolin-4-yl)piperidin-1-yl)heptyl)oxy)-4-methoxyphenyl)isoindoline-1,3-dione] | < 20 | 
≤ 50 | Cc1ncsc1-c1ccc(CNC(=O)[C@@H]2C[C@@H](O)CN2C(=O)[C@@H](NC(=O)CCCCCCCCCCOc2cc(C(=O)Nc3c(Cl)cncc3Cl)ccc2OC(F)F)C(C)(C)C)cc1 [Compound B76, (2S,4R)-1-((S)-2-(11-(5-((3,5-Dichloropyridin-4-yl)carbamoyl)-2-(difluoromethoxy)phenoxy)undecanamido)-3,3-dimethylbutanoyl)-4-hydroxy-N-(4-(4-methylthiazol-5-yl)benzyl)pyrrolidine-2-carboxamide] | ≥ 60 | ≥ 60
≤ 50 | CCOc1cc([C@@H](CS(C)(=O)=O)N2C(=O)c3cccc(NC(=O)CCCCCCCCN4CCC(c5cc(F)cc6c5CN(C5CCC(=O)NC5=O)C6=O)CC4)c3C2=O)ccc1OC (stereo partly drawn) [Compound B77, 9-(4-(2-(2,6-Dioxopiperidin-3-yl)-6-fluoro-1-oxoisoindolin-4-yl)piperidin-1-yl)-N-(2-((S)-1-(3-ethoxy-4-methoxyphenyl)-2-(methylsulfonyl)ethyl)-1,3-dioxoisoindolin-4-yl)nonanamide] | ≥ 60 | 40 to 60
≤ 50 | O=C1CCC(N2Cc3c(NCCCOCCOCCOCCOc4ccc(C(=O)Nc5c(Cl)cncc5Cl)cc4OCC4CC4)cccc3C2=O)C(=O)N1 (centres unmarked) [Compound B81, 3-(Cyclopropylmethoxy)-N-(3,5-dichloropyridin-4-yl)-4-(2-(2-(2-(3-((2-(2,6-dioxopiperidin-3-yl)-1-oxoisoindolin-4-yl)amino)propoxy)ethoxy)ethoxy)ethoxy)benzamide] |  | 
 | O=C1CCC(N2Cc3c(cc(F)cc3C3CCN(CCCCCCCCCOc4ccc(C(=O)Nc5c(Cl)cncc5Cl)cc4OCC4CC4)CC3)C2=O)C(=O)N1 (centres unmarked) [Compound B84, 3-(Cyclopropylmethoxy)-N-(3,5-dichloropyridin-4-yl)-4-((9-(4-(2-(2,6-dioxopiperidin-3-yl)-6-fluoro-1-oxoisoindolin-4-yl)piperidin-1-yl)nonyl)oxy)benzamide] | ≥ 60 | 
 | CC(=O)NC(=O)C(C)N1Cc2c(cc(F)cc2C2CCN(CCCCCCCCCOc3cc(C(=O)Nc4c(Cl)cncc4Cl)ccc3OC(F)F)CC2)C1=O (centres unmarked) [Compound B85, 3-((9-(4-(2-(1-Acetamido-1-oxopropan-2-yl)-6-fluoro-1-oxoisoindolin-4-yl)piperidin-1-yl)nonyl)oxy)-N-(3,5-dichloropyridin-4-yl)-4-(difluoromethoxy)benzamide] | 20 to 40 | 
 | Cc1ncsc1-c1ccc(CNC(=O)[C@@H]2C[C@@H](O)CN2C(=O)[C@@H](NC(=O)CCCCCCCCOc2cc(C(=O)Nc3c(Cl)cncc3Cl)ccc2OCC2CC2)C(C)(C)C)cc1 [Compound B86, (2S,4R)-1-((S)-2-(9-(2-(Cyclopropylmethoxy)-5-((3,5-dichloropyridin-4-yl)carbamoyl)phenoxy)nonanamido)-3,3-dimethylbutanoyl)-4-hydroxy-N-(4-(4-methylthiazol-5-yl)benzyl)pyrrolidine-2-carboxamide] | ≥ 60 | 
≤ 50 | CCOc1cc([C@@H](CS(C)(=O)=O)N2C(=O)c3cc(CCCCCCCC4CCN(c5cccc6c5C(=O)N(C5CCC(=O)NC5=O)C6=O)CC4)cc(NC(C)=O)c3C2=O)ccc1OC (stereo partly drawn) [Compound B88, N-(6-(7-(1-(2-(2,6-Dioxopiperidin-3-yl)-1,3-dioxoisoindolin-4-yl)piperidin-4-yl)heptyl)-2-((S)-1-(3-ethoxy-4-methoxyphenyl)-2-(methylsulfonyl)ethyl)-1,3-dioxoisoindolin-4-yl)acetamide] |  | 
≤ 50 | CCOc1cc([C@@H](CS(C)(=O)=O)N2C(=O)c3cccc(NC(=O)CCOCCOCCNc4cccc5c4C(=O)N(C4CCC(=O)NC4=O)C5=O)c3C2=O)ccc1OC (stereo partly drawn) [Compound B89, 3-(2-(2-((2-(2,6-Dioxopiperidin-3-yl)-1,3-dioxoisoindolin-4-yl)amino)ethoxy)ethoxy)-N-(2-((S)-1-(3-ethoxy-4-methoxyphenyl)-2-(methylsulfonyl)ethyl)-1,3-dioxoisoindolin-4-yl)propanamide] |  | 
≤ 50 | O=C1CCC(N2Cc3c(cc(F)cc3C3CCN(CCCCCCCOc4ccc(N5Cc6sccc6C5=O)cc4OC4CCCC4)CC3)C2=O)C(=O)N1 (centres unmarked) [Compound B91, 3-(4-(1-(7-(2-(Cyclopentyloxy)-4-(4-oxo-4,6-dihydro-5H-thieno[2,3-c]pyrrol-5-yl)phenoxy)heptyl)piperidin-4-yl)-6-fluoro-1-oxoisoindolin-2-yl)piperidine-2,6-dione] |  | 
